The values below come from US10869846B2, “N-acetylcysteine amide (NAC amide) in the treatment of diseases and conditions associated with oxidative stress” (SENTIENT LIFESCIENCES, INC., priority 2005, dated 2020).

Each structure is given as a SMILES string.

One series has as its system mouse. The note with it: subcutaneous injection; cited from earlier work.
Series [1] deals with PC12 cells. Kind of series: MDA measurement in glutamate-exposed cells. The class given is cell-based. The note with it: GLU (10 mM) alone, 24 h. The method, then: MDA measurement: To prepare the solution, 350 μl of straight cell homogenate, 100 μl of 500 ppm BHT (butylated hydroxytoluene), and 550 μl of 10% TCA (trichloroacetic acid) were combined and boiled for 30 min. The tubes were cooled on ice and centrifuged for 10 min at 2500 rpm. Five hundred (500) μl of the supernatant were removed and 500 μl of TBA (thiobarbituric acid) were added. The tubes were boiled again for 30 min, and then cooled on ice. From this solution, 500 μl were removed, added to 1.0 ml of n-butanol, vortexed, and centrifuged for 5 min at 60 g to facilitate a phase separation. The top layer was then filtered through 0.45 μm filters and injected onto a 5 μm C18 column (250×4.6 mm) on a reverse phase HPLC system. The mobile phase consisted of 69.4% 5 mM sodium phosphate buffer (pH=7.0), 30% acetonitrile, and 0.6% THF (tetrahydrofuran). The excitation wavelength was 515 nm; the emission wavelength was 550 nm (Draper H. H. et al., Free Radic Biol Med., 15(4):353-63, 1993).
Cells were plated and grown for 24 hours, and then they were exposed to glutamate (10 mM) in the presence or absence of NAC amide (750 μM). Twenty-four hours later, the cells were harvested and malondialdehyde levels were measured. Values represent means.+−.SD. Statistically different values of *P<0.002 and **P<0.05 were determined, compared to control. ***P<0.05 compared to glutamate-treated group.

The test system of series [2] is PC12 cells. Kind of series: GSH measurement in cells (NPM/HPLC). The class given is cell-based. The following applies: GLU (10 mM) alone. The method, then: Cells were seeded at a density of 80,000 cells/cm^2 on poly-D-lysine coated (0.05 mg/ml) 75 cm^2 flasks (5 ml/flask) for GSH measurement. […] After the incubation period, cells were removed from the cultures and homogenized in serine borate buffer (100 mM Tris-HCl, 10 mM boric acid, 5 mM L-serine, 1 mM DETAPAC, pH 7.4). Twenty (20) μl of the diluted cell homogenate were added to 230 μl of serine borate buffer and 750 μl of NPM (1 mM in acetonitrile). The resulting solutions were incubated at room temperature for 5 min. The reaction was stopped by the addition of 5 μl of 2N HCl. The samples were then filtered through a 0.2 μm Acrodisc filter and injected onto the HPLC system.
[…] Values represent means.+−.SD. Statistically different values of *P<0.05 were determined, compared to control. **P<0.001 compared to glutamate-treated group. ***P<0.05 compared to glutamate-treated group.

Consider `CN1CC[C@]23c4c5ccc(O)c4O[C@H]2C(=O)C=C[C@H]3[C@H]1C5` [Morphinone, morphinone], for which the “toxicity relative to morphine” value in the series on mouse is 9 times.

For `N[C@@H](CCC(=O)O)C(=O)O` [GLU, glutamate, reference compound], in the series on PC12 cells [1], the “MDA Levels” value stood at 247 ± 26 nM/100 mg protein. For the same compound, the “GSH Levels” value with PC12 cells [2] is on record as 23 ± 4.2 nM/mg protein.
